Results reported in US7858630B2, “D3 and 5-HT2A receptor modulators” (Hoffmann-La Roche Inc., priority 2008, dated 2010).
One block for each compound: values may come before it.

Columns and labels:
[1] = molecular target: T1, human serotonin 5-HT2A receptor (Homo sapiens, UniProt P28223); assay: Radioligand binding ([3H]-ketanserin) to membranes of HEK-293 EBNA cells expressing human 5-HT2A receptor; conditions: 1.1 nM [3H]-ketanserin, HEK-293 EBNA membranes, 1 h at RT
T1 construct: expressed in transfected cells; host or cells: HEK-293 EBNA cells, transient transfection; membrane preparation
In short: (§1)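 Membranes from HEK-293 EBNA cells transiently transfected with the receptor were incubated 1 h at RT with ten test concentrations (10 μM–0.1 nM) and ~0.7 nM [3H]-spiperone (D2), 0.5 nM [3H]-spiperone (D3) or 1.1 nM [3H]-ketanserin (5-HT2A). Nonspecific binding was set with 10 μM spiperone, bound radioactivity was read by filtration and scintillation, and Ki was taken from IC50 via Cheng-Prusoff.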

[2] = molecular target: T2, human dopamine D3 receptor (Homo sapiens, UniProt P35462); assay: Radioligand binding ([3H]-spiperone) to membranes of HEK-293 EBNA cells expressing human D3 receptor; conditions: human D3, 0.5 nM [3H]-spiperone, HEK-293 EBNA membranes, 1 h at RT
T2 construct: expressed in transfected cells; host or cells: HEK-293 EBNA cells, transient transfection; membrane preparation
In short: as §1

[3] = molecular target: T3, human dopamine D2 receptor (Homo sapiens, UniProt P14416); assay: Radioligand binding ([3H]-spiperone) to membranes of HEK-293 EBNA cells expressing human D2 receptor; conditions: human D2, 0.7 nM [3H]-spiperone, HEK-293 EBNA membranes, 1 h at RT
T3 construct: expressed in transfected cells; host or cells: HEK-293 EBNA cells, transient transfection; membrane preparation
In short: as §1

T1 sequence (P28223 whole entry): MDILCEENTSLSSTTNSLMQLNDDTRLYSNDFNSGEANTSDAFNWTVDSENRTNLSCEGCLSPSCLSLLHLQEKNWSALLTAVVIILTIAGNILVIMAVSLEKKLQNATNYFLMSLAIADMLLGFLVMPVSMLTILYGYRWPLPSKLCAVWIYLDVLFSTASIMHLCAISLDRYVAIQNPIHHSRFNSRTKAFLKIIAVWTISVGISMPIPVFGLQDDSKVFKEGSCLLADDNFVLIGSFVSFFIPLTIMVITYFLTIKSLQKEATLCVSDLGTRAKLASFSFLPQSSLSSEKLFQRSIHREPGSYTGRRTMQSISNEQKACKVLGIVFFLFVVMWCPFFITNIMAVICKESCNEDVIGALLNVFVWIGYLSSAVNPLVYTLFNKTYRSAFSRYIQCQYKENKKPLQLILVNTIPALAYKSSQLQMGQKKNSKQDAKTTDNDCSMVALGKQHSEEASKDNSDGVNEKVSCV
T2 sequence (P35462 whole entry): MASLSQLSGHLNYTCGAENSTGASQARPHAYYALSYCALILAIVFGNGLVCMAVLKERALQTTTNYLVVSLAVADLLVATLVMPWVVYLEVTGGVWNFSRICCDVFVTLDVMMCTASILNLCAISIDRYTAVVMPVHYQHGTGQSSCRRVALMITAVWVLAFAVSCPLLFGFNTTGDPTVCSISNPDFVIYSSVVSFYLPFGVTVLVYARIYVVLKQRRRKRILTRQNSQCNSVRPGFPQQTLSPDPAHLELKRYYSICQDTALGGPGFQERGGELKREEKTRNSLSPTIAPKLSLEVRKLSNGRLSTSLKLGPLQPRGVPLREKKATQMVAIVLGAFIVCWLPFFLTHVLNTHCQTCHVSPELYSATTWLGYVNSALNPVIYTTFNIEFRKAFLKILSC
T3 sequence (P14416 whole entry): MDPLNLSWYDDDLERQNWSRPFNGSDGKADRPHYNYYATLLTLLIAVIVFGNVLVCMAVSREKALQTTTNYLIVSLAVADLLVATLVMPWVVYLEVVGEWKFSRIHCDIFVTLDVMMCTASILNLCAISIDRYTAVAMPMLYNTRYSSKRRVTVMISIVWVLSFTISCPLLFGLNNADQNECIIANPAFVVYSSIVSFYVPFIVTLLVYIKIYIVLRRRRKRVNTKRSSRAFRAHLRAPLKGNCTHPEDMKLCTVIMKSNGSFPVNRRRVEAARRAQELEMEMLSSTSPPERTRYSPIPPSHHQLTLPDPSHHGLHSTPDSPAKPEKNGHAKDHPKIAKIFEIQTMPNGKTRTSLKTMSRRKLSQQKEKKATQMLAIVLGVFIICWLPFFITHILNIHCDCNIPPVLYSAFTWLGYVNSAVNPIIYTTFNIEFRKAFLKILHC

SMILES: O=C(CC1CCOCC1)N[C@H]1CC[C@H](CCN2CCN(c3noc4cc(Cl)c(F)cc34)CC2)CC1 [Example 72, N-trans-(4-{2-[4-(6-Chloro-5-fluoro-benzo[d]isoxazol-3-yl)-piperazin-1-yl]-ethyl}-cyclohexyl)-2-(tetrahydro-pyran-4-yl)-acetamide]
- Ki [1]: 36.6 nM
- Ki [2]: 24.3 nM
- Ki [3]: 11300 nM

SMILES: O=C(CC1(O)CCOCC1)N[C@H]1CC[C@H](CCN2CCN(c3noc4cc(F)c(F)cc34)CC2)CC1 [Example 61, N-trans-(4-{2-[4-(5,6-Difluoro-benzo[d]isoxazol-3-yl)-piperazin-1-yl]-ethyl}-cyclohexyl)-2-(4-hydroxy-tetrahydro-pyran-4-yl)-acetamide]
- Ki [1]: 8.45 nM
- Ki [2]: 10.1 nM
- Ki [3]: 811 nM

SMILES: COC(CCC(=O)N[C@H]1CC[C@H](CCN2CCN(c3noc4ccc(F)cc34)CC2)CC1)OC [Example 28, N-trans-(4-{2-[4-(5-Fluoro-benzo[d]isoxazol-3-yl)-piperazin-1-yl]-ethyl}-cyclohexyl)-4,4-dimethoxy-butyramide]
- Ki [1]: 22.8 nM
- Ki [2]: 8.78 nM
- Ki [3]: 918 nM

SMILES: C[C@H](O)CC(=O)N[C@H]1CC[C@H](CCN2CCN(c3noc4cc(Cl)ccc34)CC2)CC1 [Example 45, (S)-N-(4-{2-[4-(6-Chloro-benzo[d]isoxazol-3-yl)-piperazin-1-yl]-ethyl}-cyclohexyl)-3-hydroxy-butyramide]
- Ki [1]: 9.21 nM
- Ki [2]: 15.8 nM
- Ki [3]: 356 nM

SMILES: Cc1cc2c(N3CCN(CC[C@H]4CC[C@H](NC(=O)CC5CC5)CC4)CC3)noc2cc1F [Example 109, 2-Cyclopropyl-N-trans-(4-{2-[4-(6-fluoro-5-methyl-benzo[d]isoxazol-3-yl)-piperazin-1-yl]-ethyl}-cyclohexyl)-acetamide]
- Ki [1]: 32.6 nM
- Ki [2]: 14.5 nM
- Ki [3]: 10000 nM

SMILES: CCOCC(=O)N[C@H]1CC[C@H](CCN2CCN(c3noc4cc(F)c(C)cc34)CC2)CC1 [Example 110, 2-Ethoxy-N-trans-(4-{2-[4-(6-fluoro-5-methyl-benzo[d]isoxazol-3-yl)-piperazin-1-yl]-ethyl}-cyclohexyl)-acetamide]
- Ki [1]: 10.1 nM
- Ki [2]: 31.6 nM
- Ki [3]: 1550 nM

SMILES: O=C(N[C@H]1CC[C@H](CCN2CCN(c3noc4cc(F)c(F)cc34)CC2)CC1)C1CCOCC1 [Example 67, Tetrahydro-pyran-4-carboxylic acid N-trans-(4-{2-[4-(5,6-difluoro-benzo[d]isoxazol-3-yl)-piperazin-1-yl]-ethyl}-cyclohexyl)-amide]
- Ki [1]: 7.72 nM
- Ki [2]: 30 nM
- Ki [3]: 2670 nM

SMILES: CC1(C)C[C@H](CC(=O)N[C@H]2CC[C@H](CCN3CCN(c4noc5ccc(F)cc45)CC3)CC2)CCO1 [Example 23, 2-((R)-2,2-Dimethyl-tetrahydro-pyran-4-yl)-N-(4-{2-[4-(5-fluoro-benzo[d]isoxazol-3-yl)-piperazin-1-yl]-ethyl}-cyclohexyl)-acetamide]
- Ki [1]: 26.8 nM
- Ki [2]: 7.03 nM
- Ki [3]: 1060 nM

SMILES: O=C(CO)N[C@H]1CC[C@H](CCN2CCN(c3noc4cc(F)c(Cl)cc34)CC2)CC1 [Example 87, N-trans-(4-{2-[4-(5-Chloro-6-fluoro-benzo[d]isoxazol-3-yl)-piperazin-1-yl]-ethyl}-cyclohexyl)-2-hydroxy-acetamide]
- Ki [1]: 8.6 nM
- Ki [2]: 9.97 nM
- Ki [3]: 401 nM

SMILES: CS(=O)(=O)N[C@H]1CC[C@H](CCN2CCN(c3noc4ccc(F)cc34)CC2)CC1 [Example 14, N-trans-(4-{2-[4-(5-Fluoro-benzo[d]isoxazol-3-yl)-piperazin-1-yl]-ethyl}-cyclohexyl)-methanesulfonamide]
- Ki [1]: 28.1 nM
- Ki [2]: 3.37 nM
- Ki [3]: 1070 nM

SMILES: Cc1cc2c(N3CCN(CC[C@H]4CC[C@H](NC(=O)C[C@@H]5COCCO5)CC4)CC3)noc2cc1F [Example 114, 2-(R)-[1,4]Dioxan-2-yl-N-trans-(4-{2-[4-(6-fluoro-5-methyl-benzo[d]isoxazol-3-yl)-piperazin-1-yl]-ethyl}-cyclohexyl)-acetamide]
- Ki [1]: 17 nM
- Ki [2]: 31 nM
- Ki [3]: > 9700 nM

SMILES: CC(=O)N[C@H]1CC[C@H](CCN2CCN(c3noc4cc(Cl)ccc34)CC2)CC1 [Example 30, N-trans-(4-{2-[4-(6-Chloro-benzo[d]isoxazol-3-yl)-piperazin-1-yl]-ethyl}-cyclohexyl)-acetamide]
- Ki [1]: 8.65 nM
- Ki [2]: 9.18 nM
- Ki [3]: 675 nM

SMILES: COC1CCCC(C(=O)N[C@H]2CC[C@H](CCN3CCN(c4noc5ccc(F)cc45)CC3)CC2)C1 (stereo partly drawn) [Example 16, 3-Methoxy-cyclohexanecarboxylic acid N-trans-(4-{2-[4-(5-fluoro-benzo[d]isoxazol-3-yl)-piperazin-1-yl]-ethyl}-cyclohexyl)-amide]
- Ki [1]: 14.4 nM
- Ki [2]: 21.4 nM
- Ki [3]: 1440 nM

SMILES: COC(CC(=O)N[C@H]1CC[C@H](CCN2CCN(c3noc4ccc(F)cc34)CC2)CC1)OC [Example 26, N-trans-(4-{2-[4-(5-Fluoro-benzo[d]isoxazol-3-yl)-piperazin-1-yl]-ethyl}-cyclohexyl)-3,3-dimethoxy-propionamide]
- Ki [1]: 15.9 nM
- Ki [2]: 2.12 nM
- Ki [3]: 761 nM

SMILES: O=C(N[C@H]1CC[C@H](CCN2CCN(c3noc4cc(Cl)ccc34)CC2)CC1)[C@H]1CCOC1 [Example 46, (S)-Tetrahydro-furan-3-carboxylic acid (4-{2-[4-(6-chloro-benzo[d]isoxazol-3-yl)-piperazin-1-yl]-ethyl}-cyclohexyl)-amide]
- Ki [1]: 10.9 nM
- Ki [2]: 20.9 nM
- Ki [3]: 488 nM

SMILES: CC1(CC(=O)N[C@H]2CC[C@H](CCN3CCN(c4noc5ccc(F)cc45)CC3)CC2)COC1 [Example 21, N-trans-(4-{2-[4-(5-Fluoro-benzo[d]isoxazol-3-yl)-piperazin-1-yl]-ethyl}-cyclohexyl)-2-(3-methyl-oxetan-3-yl)-acetamide]
- Ki [1]: 11.1 nM
- Ki [2]: 2.61 nM
- Ki [3]: 307 nM

Now those with a lower Ki [1], led by results:

- Ki [1]: 6.33 nM
- Ki [2]: 13.1 nM
- Ki [3]: 862 nM
SMILES: O=C(CC1OCCCO1)N[C@H]1CC[C@H](CCN2CCN(c3noc4cc(F)c(F)cc34)CC2)CC1 [Example 69, N-trans-(4-{2-[4-(5,6-Difluoro-benzo[d]isoxazol-3-yl)-piperazin-1-yl]-ethyl}-cyclohexyl)-2-[1,3]dioxan-2-yl-acetamide]

- Ki [1]: 5.28 nM
- Ki [2]: 4.38 nM
- Ki [3]: 11100 nM
SMILES: CSCCC(=O)N[C@H]1CC[C@H](CCN2CCN(c3noc4cc(F)c(Cl)cc34)CC2)CC1 [Example 81, N-trans-(4-{2-[4-(5-Chloro-6-fluoro-benzo[d]isoxazol-3-yl)-piperazin-1-yl]-ethyl}-cyclohexyl)-3-methylsulfanyl-propionamide]

- Ki [1]: 5.14 nM
- Ki [2]: 2.74 nM
- Ki [3]: 172 nM
SMILES: O=C(CC(F)(F)F)N[C@H]1CC[C@H](CCN2CCN(c3noc4cc(Cl)ccc34)CC2)CC1 [Example 53, N-trans-(4-{2-[4-(6-Chloro-benzo[d]isoxazol-3-yl)-piperazin-1-yl]-ethyl}-cyclohexyl)-3,3,3-trifluoro-propionamide]

- Ki [1]: 4 nM
- Ki [2]: 5 nM
- Ki [3]: 170 nM
SMILES: Cc1ccc2c(N3CCN(CC[C@H]4CC[C@H](NC(=O)CS(C)(=O)=O)CC4)CC3)noc2c1 [Example 105, 2-Methanesulfonyl-N-trans-(4-{2-[4-(6-methyl-benzo[d]isoxazol-3-yl)-piperazin-1-yl]-ethyl}-cyclohexyl)-acetamide]

- Ki [1]: 2.99 nM
- Ki [2]: 1.37 nM
- Ki [3]: 11100 nM
SMILES: Cc1cc(CC(=O)N[C@H]2CC[C@H](CCN3CCN(c4noc5cc(F)c(Cl)cc45)CC3)CC2)on1 [Example 82, N-trans-(4-{2-[4-(5-Chloro-6-fluoro-benzo[d]isoxazol-3-yl)-piperazin-1-yl]-ethyl}-cyclohexyl)-2-(3-methyl-isoxazol-5-yl)-acetamide]

- Ki [1]: 2.89 nM
- Ki [2]: 5.72 nM
- Ki [3]: 11200 nM
SMILES: CS(=O)(=O)CC(=O)N[C@H]1CC[C@H](CCN2CCN(c3noc4cc(F)c(Cl)cc34)CC2)CC1 [Example 89, N-trans-(4-{2-[4-(5-Chloro-6-fluoro-benzo[d]isoxazol-3-yl)-piperazin-1-yl]-ethyl}-cyclohexyl)-2-methanesulfonyl-acetamide]

- Ki [1]: 2.65 nM
- Ki [2]: 13.9 nM
- Ki [3]: 333 nM
SMILES: Cc1ccc2c(N3CCN(CC[C@H]4CC[C@H](NC(=O)CC5COCCO5)CC4)CC3)noc2c1 (stereo partly drawn) [Example 102, 2-[1,4]Dioxan-2-yl-N-trans-(4-{2-[4-(6-methyl-benzo[d]isoxazol-3-yl)-piperazin-1-yl]-ethyl}-cyclohexyl)-acetamide]

- Ki [1]: 2.37 nM
- Ki [2]: 15.9 nM
- Ki [3]: 3040 nM
SMILES: O=C(N[C@H]1CC[C@H](CCN2CCN(c3noc4cc(Cl)ccc34)CC2)CC1)C1CCOCC1 [Example 32, Tetrahydro-pyran-4-carboxylic acid N-trans-(4-{2-[4-(6-chloro-benzo[d]isoxazol-3-yl)-piperazin-1-yl]-ethyl}-cyclohexyl)-amide]

- Ki [1]: 2.26 nM
- Ki [2]: 6.06 nM
- Ki [3]: 2300 nM
SMILES: O=C(CC1OCCCO1)N[C@H]1CC[C@H](CCN2CCN(c3noc4cc(F)c(Cl)cc34)CC2)CC1 [Example 77, N-trans-(4-{2-[4-(5-Chloro-6-fluoro-benzo[d]isoxazol-3-yl)-piperazin-1-yl]-ethyl}-cyclohexyl)-2-[1,3]dioxan-2-yl-acetamide]
